Assay results: US20250281499A1, “FUSED AMINO PYRIMIDINE COMPOUNDS FOR TREATMENT OF NEUROPATHIC AND NEURO-INFLAMMATORY PAIN” (Ovid Therapeutics Inc., priority 2024, published 2025)

Molecular target: T1, KCC2 (Homo sapiens, UniProt Q9H2X9)
T1 construct: expressed in transfected cells; host or cells: HEK-293 (ATCC CRL-1573), Lipofectamine 2000, used 48-72 h after transfection
T1 sequence (Q9H2X9 1-1116 isoform Q9H2X9-2): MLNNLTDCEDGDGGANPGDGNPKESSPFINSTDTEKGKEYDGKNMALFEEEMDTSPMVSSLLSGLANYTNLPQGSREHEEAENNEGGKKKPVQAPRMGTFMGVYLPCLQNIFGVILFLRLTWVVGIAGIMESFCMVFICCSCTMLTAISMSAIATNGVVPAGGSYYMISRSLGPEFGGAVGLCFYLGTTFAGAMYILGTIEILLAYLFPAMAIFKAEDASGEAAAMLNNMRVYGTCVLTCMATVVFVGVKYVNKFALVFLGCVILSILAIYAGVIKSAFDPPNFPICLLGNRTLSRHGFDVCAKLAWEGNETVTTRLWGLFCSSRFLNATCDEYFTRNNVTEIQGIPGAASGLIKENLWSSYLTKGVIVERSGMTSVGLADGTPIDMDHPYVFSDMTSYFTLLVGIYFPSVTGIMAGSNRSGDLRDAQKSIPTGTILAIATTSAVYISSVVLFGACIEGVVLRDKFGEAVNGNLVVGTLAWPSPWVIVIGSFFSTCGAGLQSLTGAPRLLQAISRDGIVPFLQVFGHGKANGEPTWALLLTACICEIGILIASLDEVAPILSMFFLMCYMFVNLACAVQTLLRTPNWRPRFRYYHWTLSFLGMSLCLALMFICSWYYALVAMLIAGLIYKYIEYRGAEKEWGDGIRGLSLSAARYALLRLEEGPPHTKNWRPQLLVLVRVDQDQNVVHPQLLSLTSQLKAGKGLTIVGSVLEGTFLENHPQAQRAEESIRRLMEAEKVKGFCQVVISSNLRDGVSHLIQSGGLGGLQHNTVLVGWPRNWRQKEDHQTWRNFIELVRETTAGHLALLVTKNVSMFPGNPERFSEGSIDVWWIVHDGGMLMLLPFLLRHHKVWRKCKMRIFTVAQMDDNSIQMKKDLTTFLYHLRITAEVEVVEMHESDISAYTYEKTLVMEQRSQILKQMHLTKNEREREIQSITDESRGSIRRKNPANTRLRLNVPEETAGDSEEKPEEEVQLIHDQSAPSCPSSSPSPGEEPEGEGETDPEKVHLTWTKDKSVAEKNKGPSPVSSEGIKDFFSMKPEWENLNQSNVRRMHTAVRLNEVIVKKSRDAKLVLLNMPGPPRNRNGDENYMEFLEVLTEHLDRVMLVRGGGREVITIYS
Test: Cell surface biotinylation of KCC2 in HEK-293 cells
Assay type: cell-based
Conditions: 15 min
Protocol: Cell Culture and biotinylation. HEK-293 cells were purchased from ATCC (CRL-1573) and transfected with human KCC2 and GFP expression plasmids using Lipofectamine 2000. Cells were utilized for experimentation 48-72 h following transfection. Cells were biotinylated at 4° C. using NHS-Biotin. Following lysis and purification on immobilized avidin beads, cell surface and total fractions were subject to immunoblotting as outlined previously (Conway et al., 2017, supra).
The reliability of the biotinylation procedure was assessed via immunoblotting with antibodies against the cytosolic protein actin. Actin was present in the total lysates but was absent from the surface fractions (FIG. 2C).

C[C@@H]1CN(c2nc3c(c(Nc4ccc(C5CCCCC5)cc4)n2)COC3)CCO1 [Compound A, (R)—N-(4-cyclohexylphenyl)-2-(2-methylmorpholino)-5,7-dihydrofuro[3,4-d]pyrimidin-4-amine]
level of KCC2 on the plasma membrane (surface/total) (0.3 μM): 94.5 ±8.4 % of control | level of KCC2 on the plasma membrane (surface/total) (3 μM): 104.7±8.4 % of control
